15 compounds from US11325889B2, “Substituted 3-((3-aminophenyl)amino)piperidine-2,6-dione compounds, compositions thereof, and methods of treatment therewith” (Celgene Corporation, priority 2018, dated 2022) can be followed below.

Where two headings read alike, the source gives them in different places. Where only a bound is given, the exact number is not on record here.

The experiment has as its target T1, AR protein in VCaP cells (Homo sapiens, UniProt P10275).
T1 construct: endogenous in cells; host or cells: VCaP cells
T1 sequence (P10275 1-920): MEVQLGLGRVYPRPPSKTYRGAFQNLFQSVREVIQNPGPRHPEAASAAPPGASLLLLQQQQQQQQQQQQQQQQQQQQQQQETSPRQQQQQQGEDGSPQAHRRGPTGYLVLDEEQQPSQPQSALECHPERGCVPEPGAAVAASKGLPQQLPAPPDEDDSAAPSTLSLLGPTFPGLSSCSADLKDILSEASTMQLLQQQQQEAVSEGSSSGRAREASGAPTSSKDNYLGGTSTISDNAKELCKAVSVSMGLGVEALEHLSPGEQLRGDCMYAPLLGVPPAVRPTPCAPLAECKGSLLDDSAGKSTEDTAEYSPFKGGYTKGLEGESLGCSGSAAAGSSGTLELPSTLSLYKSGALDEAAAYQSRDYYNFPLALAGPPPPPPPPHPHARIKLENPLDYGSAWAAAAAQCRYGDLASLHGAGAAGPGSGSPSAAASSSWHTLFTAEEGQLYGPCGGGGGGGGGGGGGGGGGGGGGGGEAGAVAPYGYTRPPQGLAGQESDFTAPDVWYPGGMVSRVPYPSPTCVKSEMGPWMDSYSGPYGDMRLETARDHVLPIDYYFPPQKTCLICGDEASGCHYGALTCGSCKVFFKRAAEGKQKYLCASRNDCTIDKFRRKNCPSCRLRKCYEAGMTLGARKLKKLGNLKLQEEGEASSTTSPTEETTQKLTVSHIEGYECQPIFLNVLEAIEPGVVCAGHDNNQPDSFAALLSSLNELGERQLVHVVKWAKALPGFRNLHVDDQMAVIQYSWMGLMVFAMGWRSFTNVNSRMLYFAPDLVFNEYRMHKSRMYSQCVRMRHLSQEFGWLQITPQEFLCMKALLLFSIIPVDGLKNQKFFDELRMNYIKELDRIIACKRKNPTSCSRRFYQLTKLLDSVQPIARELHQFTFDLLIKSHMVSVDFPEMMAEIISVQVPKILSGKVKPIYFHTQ
Briefly: VCAP AR Degradation Assay (AR ELISA, 24 h). The format is cell-based. The settings on record: for Y (lowest measured AR level normalized to DMSO control): AR degradation efficiency; for DC50: concentration of compound when AR level = 50% of DMSO control. A digest of the protocol:
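VCaP cells in DMEM with 8% FBS exposed for 24 h at 37° C to a 10-point, 1:3 series (final top concentration […]; 0.1% DMSO control). Lysate AR measured by sandwich ELISA and normalized to DMSO as percent of control. DC50, EC50 and lowest AR level (Y) from four-parameter logistic fit.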

Broadly, the DC50 is the midpoint of the concentration-degradation curve.

With `CCc1cc(N2C(=S)N(c3cnc(C#N)c(C(F)(F)F)c3)C(=O)C2(C)C)ccc1OCCC1CCN([C@@H](C)C(=O)Nc2cc(C#N)cc(NC3CCC(=O)NC3=O)c2)CC1` (stereo partly drawn) [Cmpd 37, (2S)-N-(3-cyano-5-(2,6-dioxopiperidin-3-ylamino)phenyl)-2-(4-(2-(4-(3-(6-cyano-5-(trifluoromethyl)pyridin-3-yl)-5,5-dimethyl-4-oxo-2-thioxoimidazolidin-1-yl)-2-ethylphenoxy)ethyl)piperidin-1-yl)propanamide], the “Y (lowest measured AR level normalized to DMSO control)” value was “* (0<Y<=25%)”. Under “read-out: DC50”, the DC50 was under 100 nM.
Take `CCc1cc(N2C(=S)N(c3ccc(C#N)c(C(F)(F)F)c3)C(=O)C2(C)C)ccc1OCCC1(F)CCN(CC(=O)Nc2cccc(NC3CCC(=O)NC3=O)c2)CC1` (stereo not drawn) [Cmpd 88, 2-(4-(2-(4-(3-(4-cyano-3-(trifluoromethyl)phenyl)-5,5-dimethyl-4-oxo-2-thioxoimidazolidin-1-yl)-2-ethylphenoxy)ethyl)-4-fluoropiperidin-1-yl)-N-(3-(2,6-dioxopiperidin-3-ylamino)phenyl)acetamide]: the “Y (lowest measured AR level normalized to DMSO control)” value is “* (0<Y<=25%)”. Further, the DC50 (read-out: DC50) was under 100 nM.
On the same counts, the results for `CC(F)(F)c1cc(N2C(=S)N(c3cnc(C#N)c(C(F)(F)F)c3)C(=O)C2(C)C)ccc1OCCC1CCN(CC(=O)Nc2cc(F)cc(NC3CCC(=O)NC3=O)c2)CC1` (stereo not drawn) [Cmpd 22, 2-(4-(2-(4-(3-(6-cyano-5-(trifluoromethyl)pyridin-3-yl)-5,5-dimethyl-4-oxo-2-thioxoimidazolidin-1-yl)-2-(1,1-difluoroethyl)phenoxy)ethyl)piperidin-1-yl)-N-(3-(2,6-dioxopiperidin-3-ylamino)-5-fluorophenyl)acetamide] are “* (0<Y<=25%)” and under 100 nM.
On to `CCc1cc(N2C(=S)N(c3cnc(C#N)c(C(F)(F)F)c3)C(=O)C23CCC3)ccc1OCC[C@H]1C[C@H]2CC[C@@H](C1)N2CC(=O)Nc1cccc(NC2CCC(=O)NC2=O)c1` (single isomer, unassigned) [Cmpd 67], for which the “Y (lowest measured AR level normalized to DMSO control)” value is recorded as “** (25%<Y<=35%)” and the DC50 was under 100 nM.
Consider `CCc1cc(N2C(=S)N(c3ccc(C#N)c(C(F)(F)F)c3)C(=O)C2(C)C)ccc1OCCC1CCN([C@H](C)C(=O)Nc2cc(Cl)cc(NC3CCC(=O)NC3=O)c2)CC1` (stereo partly drawn) [Cmpd 21, (2R)-N-(3-chloro-5-(2,6-dioxopiperidin-3-ylamino)phenyl)-2-(4-(2-(4-(3-(4-cyano-3-(trifluoromethyl)phenyl)-5,5-dimethyl-4-oxo-2-thioxoimidazolidin-1-yl)-2-ethylphenoxy)ethyl)piperidin-1-yl)propanamide], for which the “Y (lowest measured AR level normalized to DMSO control)” value was “* (0<Y<=25%)”. Besides, the 50% degradation concentration (DC50) (read-out: DC50) lay in the range of 100 to 500 nM.
On the same counts, the results for `CCc1cc(N2C(=S)N(c3ccc(C#N)c(C(F)(F)F)c3)C(=O)C23CCC3)ccc1OCCC1CCN([C@@H](C)C(=O)Nc2cc(NC3CCC(=O)NC3=O)ccc2F)CC1` (stereo partly drawn) [Cmpd 74, (2S)-2-(4-(2-(4-(7-(4-cyano-3-(trifluoromethyl)phenyl)-8-oxo-6-thioxo-5,7-diazaspiro[3.4]octan-5-yl)-2-ethylphenoxy)ethyl)piperidin-1-yl)-N-(5-(2,6-dioxopiperidin-3-ylamino)-2-fluorophenyl)propanamide] are “** (25%<Y<=35%)” and 100 to 500 nM.
On the same counts, the results for `CCc1cc(N2C(=S)N(c3cnc(C#N)c(C(F)(F)F)c3)C(=O)C2(C)C)ccc1OCCC1CCN([C@H](C)C(=O)Nc2cccc(N[C@H]3CCC(=O)NC3=O)c2)CC1` [Cmpd 47, (R)-2-(4-(2-(4-(3-(6-cyano-5-(trifluoromethyl)pyridin-3-yl)-5,5-dimethyl-4-oxo-2-thioxoimidazolidin-1-yl)-2-ethylphenoxy)ethyl)piperidin-1-yl)-N-(3-((S)-2,6-dioxopiperidin-3-ylamino)phenyl)propanamide] are “* (0<Y<=25%)” and under 100 nM.
On the same counts, the results for `CCc1cc(N2C(=S)N(c3ccc(C#N)c(C(F)(F)F)c3)C(=O)C2(C)C)ccc1OCCC1CCN([C@@H](C)C(=O)Nc2cccc(NC3CCC(=O)NC3=O)c2)CC1` (stereo partly drawn) [Cmpd 41, (2S)-2-(4-(2-(4-(3-(4-cyano-3-(trifluoromethyl)phenyl)-5,5-dimethyl-4-oxo-2-thioxoimidazolidin-1-yl)-2-ethylphenoxy)ethyl)piperidin-1-yl)-N-(3-(2,6-dioxopiperidin-3-ylamino)phenyl)propanamide] are “* (0<Y<=25%)” and under 100 nM.
On to `CCc1cc(N2C(=S)N(c3ccc(C#N)c(C(F)(F)F)c3)C(=O)C2(C)C)ccc1OCCC1CCN([C@H](C)C(=O)Nc2cccc(NC3CCC(=O)NC3=O)c2)CC1` (stereo partly drawn) [Cmpd 42, (2R)-2-(4-(2-(4-(3-(4-cyano-3-(trifluoromethyl)phenyl)-5,5-dimethyl-4-oxo-2-thioxoimidazolidin-1-yl)-2-ethylphenoxy)ethyl)piperidin-1-yl)-N-(3-(2,6-dioxopiperidin-3-ylamino)phenyl)propanamide], for which the “Y (lowest measured AR level normalized to DMSO control)” value is “** (25%<Y<=35%)”. Further, the DC50 (read-out: DC50) lay in the range of 100 to 500 nM.
As for `CCc1cc(N2C(=S)N(c3ccc(C#N)c(C(F)(F)F)c3)C(=O)C2(C)C)ccc1OC1CCN(CC(=O)Nc2cccc(NC3CCC(=O)NC3=O)c2)CC1` (stereo not drawn) [Cmpd 50, 2-(4-(4-(3-(4-cyano-3-(trifluoromethyl)phenyl)-5,5-dimethyl-4-oxo-2-thioxoimidazolidin-1-yl)-2-ethylphenoxy)piperidin-1-yl)-N-(3-(2,6-dioxopiperidin-3-ylamino)phenyl)acetamide], the “Y (lowest measured AR level normalized to DMSO control)” value is recorded as “** (25%<Y<=35%)”. Also, the half-maximal degradation concentration (DC50) (read-out: DC50) lay in the range of 100 to 500 nM.
For the compound `CC(F)(F)c1cc(N2C(=S)N(c3cnc(C#N)c(C(F)(F)F)c3)C(=O)C2(C)C)ccc1OCCC1CCN(CC(=O)Nc2cc(Cl)cc(NC3CCC(=O)NC3=O)c2)CC1` (stereo not drawn) [Cmpd 24, N-(3-chloro-5-(2,6-dioxopiperidin-3-ylamino)phenyl)-2-(4-(2-(4-(3-(6-cyano-5-(trifluoromethyl)pyridin-3-yl)-5,5-dimethyl-4-oxo-2-thioxoimidazolidin-1-yl)-2-(1,1-difluoroethyl)phenoxy)ethyl)piperidin-1-yl)acetamide], the “Y (lowest measured AR level normalized to DMSO control)” value is recorded as “* (0<Y<=25%)”. For the same compound, under “read-out: DC50”, the DC50 is 100 to 500 nM.
`CC1(C)C(=O)N(c2cnc(C#N)c(C(F)(F)F)c2)C(=S)N1c1ccc(OCCC2CCN(CC(=O)Nc3cccc(NC4CCC(=O)NC4=O)c3)CC2)c(CCF)c1` (stereo not drawn) [Cmpd 58, 2-(4-(2-(4-(3-(6-cyano-5-(trifluoromethyl)pyridin-3-yl)-5,5-dimethyl-4-pxo-2-thioxoimidazolidin-1-yl)-2-(2-fluoroethyl)phenoxy)ethyl)piperidin-1-yl)-N-(3-(2,6-dioxopiperidin-3-ylamino)phenyl)acetamide]: the “Y (lowest measured AR level normalized to DMSO control)” value is recorded as “* (0<Y<=25%)”. The DC50 (read-out: DC50) is under 100 nM.
`CCc1cc(N2C(=S)N(c3cnc(C#N)c(C(F)(F)F)c3)C(=O)C2(C)C)ccc1OCCC1CCN([C@@H](C)C(=O)Nc2cccc(N[C@@H]3CCC(=O)NC3=O)c2)CC1` [Cmpd 44, (S)-2-(4-(2-(4-(3-(6-cyano-5-(trifluoromethyl)pyridin-3-yl)-5,5-dimethyl-4-oxo-2-thioxoimidazolidin-1-yl)-2-ethylphenoxy)ethyl)piperidin-1-yl)-N-(3-((R)-2,6-dioxopiperidin-3-ylamino)phenyl)propanamide]: the “Y (lowest measured AR level normalized to DMSO control)” value is listed as “* (0<Y<=25%)”. For the same compound, the DC50 (read-out: DC50) is under 100 nM.
For `CC1(C)C(=O)N(c2cnc(C#N)c(C(F)(F)F)c2)C(=S)N1c1ccc(OCCC2CCN(CC(=O)Nc3cccc(NC4CCC(=O)NC4=O)c3)CC2)c(Cl)c1` (stereo not drawn) [Cmpd 5, 2-(4-(2-(2-chloro-4-(3-(6-cyano-5-(trifluoromethyl)pyridin-3-yl)-5,5-dimethyl-4-oxo-2-thioxoimidazolidin-1-yl)phenoxy)ethyl)piperidin-1-yl)-N-(3-(2,6-dioxopiperidin-3-ylamino)phenyl)acetamide], in that order: “* (0<Y<=25%)” and under 100 nM.
Consider `CC1(C)C(=O)N(c2ccc(C#N)c(C(F)(F)F)c2)C(=S)N1c1ccc(OCC2CCN(CC(=O)Nc3cccc(NC4CCC(=O)NC4=O)c3)CC2)c(F)c1` (stereo not drawn) [Cmpd 2, 2-(4-((4-(3-(4-cyano-3-(trifluoromethyl)phenyl)-5,5-dimethyl-4-oxo-2-thioxoimidazolidin-1-yl)-2-fluorophenoxy)methyl)piperidin-1-yl)-N-(3-(2,6-dioxopiperidin-3-ylamino)phenyl)acetamide], for which the “Y (lowest measured AR level normalized to DMSO control)” value is on record as “** (25%<Y<=35%)”. Besides, the DC50 (read-out: DC50) fell in the range of 100 to 500 nM.
